The text below walks through data of patent US20200223839A1, “FLUORO-CONTAINING COMPOUNDS, USE AND PREPARATION THEREOF” (JIANGSU YINGKEBEITA YIYAOKEJI CO. LTD, priority 2017, published 2020).

For one data set, the system named is BT474. Put plainly: Cell culture and cytotoxicity assay (CTG), BT474. The conditions noted are these: Homo sapiens, BT-474, BT474, exposure 96 hours. It counts as cell-based. Here is the method: (§1) The assayed compounds each was dissolved in DMSO with a final concentration of 10 mM or 40 mM and stored at −20° C. Tumor cell lines A549 (7,000 cells/well), BT474 (12,000 cells/well), MDA-MB-468 (12,000 cells/well), and HCC1937 (6,000 cells/well) were seeded on 96-well plates. And the cells were pre-incubated at 37° C./5% CO2 for 24 hours. The cells were exposed to different concentrations of the assay compounds (from 400 μM to 782 nM, from 200 μM to 391 nM, from 100 μM to 196 nM, and from 50 μM to 98 nM) for the following time:
(§2) After incubation, 100 μL from each well was discarded and CTG base (Proega, G7571, 50 μL) was added and the mixture was agitated for 2 minutes. The mixtures were stored in a dark room for 10 minutes and the viability was analyzed with Multiskan microplate reader.

Another data set concerns MDA-MB-468. As to the kind of experiment: Cell culture and cytotoxicity assay (CTG), MDA-MB-468. It counts as cell-based, human. The following applies: Homo sapiens; MDA-MB-468, exposure 72 hours, CTG. The protocol:
as §1, §2

For a further data set, the system named is HCC1937. As to the kind of experiment: Cell culture and cytotoxicity assay (CTG), HCC1937. The conditions noted are these: Homo sapiens, HCC1937, exposure 72 hours. It counts as cell-based. Here is the method:
as §1, §2

In a further data set the test system is MDA-MB-468 cell line. As to the kind of experiment: Anti-tumor activity against MDA-MB-468 cell line (CCK-8 test). It counts as cell-based. The conditions noted are these: Homo sapiens, MDA-MB-468, 72 h. Here is the method:
A cryo tube was removed from liquid nitrogen. As quickly as possible, the cells were thawed by placing the vial in a 37° C. water bath and gently shaking the vials. The cells were transferred to medium tube, which containing 5 mL medium, and were centrifuged at 1000 rpm for 6 min. The supernatant containing dead cells and cell debris was discarded. 1 mL of pre-warmed medium with 10% FBS was add and the solution was re-suspended. The plate was placed in 37° C. and 5% CO2 incubator. The medium was changed next day.
Cells in logarithmic growth stage were taken and culture medium was discarded. 1 mL 0.25% trypsin solution was added for twice. The trypsin solution was removed and the 0.5 ml 0.25% trypsin solution was added to the cell flask. The plate was placed in 37° C. and 5% CO2 incubator for a few minutes until the cells recovered. 1 mL medium was added to stop digestion. The liquid was transferred by pipette for experiment.
the cells were suspended and the medium was discarded. 1 mL 0.25% trypsin solution was added for twice and the trypsin digestion was centrifuged. The cells were suspended with the culture medium, count and adjusted to the appropriate concentration.
The cell suspension was added to the 96-well plate with a volume of 100 uL per well, as shown in Tab. 5, and was placed in 37° C., 5% CO2 incubator overnight.
Preparation of Compounds Working Solution.
The test compounds were dissolved in DMSO at 10 mM with sterile filter (0.22 um, nelon, JET). After filtering, the solution were continuously diluted by three times with DMSO. A total of six concentration were prepared, as shown below.
6 uL compound solution was added to 594 uL medium and the solution was added to 96-well plate as shown and cultured for 72 h in CO2 incubator.
A CCK-8 solution was prepared according to the instructions and the 96-well plate was taken out and the original medium discarded. 100 uL cck-8 solution was added to each well in the 96-well plate. Photoabsorption data were read by TECAN enzyme marker after a period of time.
IC (%)=[Ac-As]/[Ac-Ab]*100% • As: Experimental well (containing culture medium, cell, CCK-8 and compound); • Ac: Controlled well (containing culture medium, cell and CCK-8); • Ab: Blank well (Only containing medium and CCK-8).
Background: Tetrazolium dyes change colour on reduction, which living cells bring about.

The next data set has as its system A549. As to the kind of experiment: Cell culture and cytotoxicity assay (CTG), A549. It counts as cell-based. The conditions noted are these: Homo sapiens, A549, exposure 72 hours. The protocol: as §1, §2
Data set [1] deals with MDA-MB-468 cells (human breast cancer) implanted in BALB/c-nu mice. As to the kind of experiment: In vivo xenograft study, MDA-MB-468, tumor sizes. The following applies: MDA-MB-468 xenograft in BALB/c-nu mice, FIGS. 2 and 4. Here is the method: (§3) MDA-MB-468 cells (human breast cancer) in its log growth phase were implanted in BALB/c-nu mice. When the tumor volume was approximately 50-150 mm^3, the mice were randomized into four groups, each include 8 mice. The four groups were treated with vehicle, Ref. 1, 4f, and Ref. 2, respectively, and the tumor sizes were measured two to three times each week and the mice were also weighted.

The nature of data set [2]: In vivo xenograft study, MDA-MB-468, mice weights. The conditions noted are these: MDA-MB-468 xenograft in BALB/c-nu mice, FIGS. 3 and 5. Here is the method:
as §3

Data set [3] in a line: In vivo mouse model, MDA-MB-453, mice weights. The following applies: MDA-MB-453 mouse model, FIG. 7, dose of this group not given. The text has this:
MDA-MB-453 cells (human breast cancer) were also studied in a mouse model. […] FIG. 7.

Data set [4] in a line: In vivo mouse model, Hep3B, mice weights. The following applies: FIG. 9, dose of this group not given. The source says: Hep3B cells (human liver cancer) were also studied in a mouse model. […] FIG. 9.

Regarding `Cc1ccc(S(=O)(=O)Nc2nc3ccccc3nc2Nc2ccc3nsnc3c2)c(F)c1` [Compound 4, N-[3-(benzo[1,2,5]thiadiazol-5-ylamino)-quinoxalin-2-yl]-2-fluoro-4-methyl-benzenesulfonamide], the IC50 was above 50000 nM in the data set with BT474, 4250 nM in the data set on MDA-MB-468 and 114000 nM in the data set with HCC1937.
Compound `O=S(=O)(Nc1nc2ccccc2nc1Nc1ccc2nsnc2c1)c1ccc(F)c(F)c1` [Compound 7] had an IC50 in the data set on MDA-MB-468 cell line of 0.469 µM.
In turn, `O=S(=O)(Nc1nc2ccccc2nc1Nc1ccc2nsnc2c1)c1ccc(Br)c(F)c1` [Compound 8] showed an IC50 in the data set with MDA-MB-468 cell line of 0.811 µM.
Same read-out and setting: as for `COc1ccc(S(=O)(=O)Nc2nc3ccccc3nc2Nc2ccc3nsnc3c2)cc1F` [Compound 9], the figure is 1.4 µM; as for `CCNc1ccc(S(=O)(=O)Nc2nc3ccccc3nc2Nc2ccc3nsnc3c2)cc1F` [Compound 10], 7.09 µM.
As for `Cc1ccc(S(=O)(=O)Nc2nc3ccccc3nc2Nc2ccc3nsnc3c2)cc1` [Ref. 1, reference compound], the 50% inhibitory concentration (IC50) is 2.67 µM in the data set with MDA-MB-468 cell line, 28200 nM in the data set with BT474, 2060 nM in the data set on MDA-MB-468 and above 50000 nM with A549. Also, the “anticancer activity (tumor sizes) versus vehicle” value in [1] was “no significant difference”. In addition, in [2], the “weight changes of mice” value is “no significant weight changes”.
Regarding `COc1ccc(Cl)c(Nc2nc3ccccc3nc2NS(=O)(=O)c2cccc(NC(=O)C(C)(C)N)c2)c1` [Ref. 2, reference compound], the IC50 is 4.91 µM in the data set with MDA-MB-468 cell line; 25000 to 50000 nM in the data set on BT474; 12500 to 25000 nM in the data set on MDA-MB-468; 25000 to 50000 nM in the data set with A549; 50000 to 100000 nM in the data set on HCC1937. The weight changes entry in data set [3] and in [4] was “no difference in weight changes” in each case. Moreover, the “anticancer activity (tumor sizes) versus vehicle” value in data set [1] is given as “no significant difference”. In addition, in data set [2], the “weight changes of mice” value is listed as “no significant weight changes”.

The IC50 is the concentration at which inhibition is half-maximal. Lower therefore signals greater potency in that assay.
